Experimental data from patent US12448382B2, “Heterocyclic compounds for mediating tyrosine kinase 2 activity” (GUANGZHOU INNOCARE PHARMA TECH CO., LTD., priority 2019, dated 2025).
Where two headings read alike, the source gives them in different places.

Tests used:
[1] = target: T1, human recombinant JAK2 protein (Homo sapiens, UniProt O60674); experiment: JAK2 Inhibition Assay (HTRF kinase assay); assay type: biochemical; details: human recombinant JAK2, 2.5 μM ATP substrate solution
T1 construct: purchased Carna Biosciences 08-045
T1 sequence (O60674 826-1132 limits assumed): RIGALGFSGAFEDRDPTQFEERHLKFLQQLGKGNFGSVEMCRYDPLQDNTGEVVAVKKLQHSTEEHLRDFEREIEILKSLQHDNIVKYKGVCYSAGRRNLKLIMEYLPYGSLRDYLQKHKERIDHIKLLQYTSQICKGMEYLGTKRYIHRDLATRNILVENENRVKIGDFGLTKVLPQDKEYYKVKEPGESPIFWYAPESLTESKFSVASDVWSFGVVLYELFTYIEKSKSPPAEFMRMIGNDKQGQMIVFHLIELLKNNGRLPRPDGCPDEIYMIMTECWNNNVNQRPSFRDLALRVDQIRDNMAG
In short: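 Recombinant human JAK2 was preincubated 15 min at room temperature with compound in buffer containing 5 mM MgCl2, 1 mM DTT and 0.01% Brij35. Substrate solution (2.5 μM ATP, 0.25 μM biotinylated TK substrate) was then added for 30 min. Phosphorylation was detected by HTRF (665/620 nm ratio; no-enzyme = 100% inhibition), and IC50 was fitted from an 8-point, 4-fold series.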

[2] = target: T2, human recombinant TYK2 protein (Homo sapiens, UniProt P29597); experiment: TYK2 Inhibition Assay (HTRF kinase assay); assay type: biochemical; details: human recombinant TYK2, 11.25 μM ATP substrate solution
T2 construct: purchased Carna Biosciences 08-147
T2 sequence (P29597 871-1187 limits assumed): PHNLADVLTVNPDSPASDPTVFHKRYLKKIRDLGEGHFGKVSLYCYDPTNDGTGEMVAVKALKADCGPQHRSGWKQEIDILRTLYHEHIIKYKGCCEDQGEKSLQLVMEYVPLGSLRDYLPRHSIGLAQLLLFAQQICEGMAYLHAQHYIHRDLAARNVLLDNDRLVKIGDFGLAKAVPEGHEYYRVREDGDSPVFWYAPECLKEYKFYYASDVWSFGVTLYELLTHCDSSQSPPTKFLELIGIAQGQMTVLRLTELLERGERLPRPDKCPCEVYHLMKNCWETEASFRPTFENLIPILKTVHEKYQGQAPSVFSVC
In short: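 Recombinant human TYK2 was pre-incubated 15 min at room temperature with compound, then reacted for 40 min with biotinylated tyrosine-kinase substrate and ATP (substrate solution 11.25 μM ATP, 0.5 μM substrate; 5 mM MgCl2, 0.01% Brij35). Phosphorylation was read by HTRF 665/620 ratio, normalised to no-enzyme and no-compound controls, and IC50 was fitted from 8 4-fold dilutions.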

[3] = tested on: IL-12-induced IFN-γ secretion in NK92 cells; experiment: Inhibition of IL-12-induced IFN-γ Secretion in NK92 Cells (ELISA); assay type: cell-based, human; details: 24 hours incubation, 8 concentration points, read-out: IC50 (NK92_IL12/IFNγ)
In short: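 NK92 cells (100,000/well, IL-2-free medium) rested overnight, then treated with compound plus IL-12 for 24 h at 37 °C. Secreted IFN-γ measured in supernatant by ELISA. Inhibition normalized to unstimulated and IL-12/0.2% DMSO controls; IC50 fitted from 8 concentrations.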

Row | Molecule | IC50 [1] [nM] | IC50 [2] [nM] | IC50 ([3]; Homo sapiens) [nM] | IC50 [3] [nM]
1 | Cn1cc(Nc2ncc(Cl)c(N3C[C@@H]4CN(C(=O)C5CC5(F)F)C[C@]4(C)C3)n2)cn1 (mixture of isomers) [Compound 65, cis-(5-(5-chloro-2-((1-methyl-1H-pyrazol-4-yl)amino)pyrimidin-4-yl)-3a-methylhexahydropyrrolo[3,4-c]pyrrol-2(1H)-yl)((S)-2,2-difluorocyclopropyl)methanone] | 1.3 | 0.5 | 136 | –
2 | Cc1cnc(Nc2cnn(C)c2)nc1N1C[C@@H]2CN(C(=O)[C@@H]3CC3(F)F)C[C@]2(C)C1 (racemic) [Compound 72] | 4.5 | 3.4 | 824 | –
3 | C[C@@]12CN(C(=O)C3CC3)C[C@]1(C)CN(c1nc(Nc3cnn(CCO)c3)ncc1F)C2 [Compound 13] | 170 | 8.5 | 4140 | –
4 | 4-(3aR,6aS)-5-(isoxazol-5-ylmethyl)-3a,6a-dimetylhexahydropyrrolo[3,4-c]pyrrol-2(1H)-yl)-5-methyl-N-(1-methyl-1H-pyrazol-4-yl)pyrimidin-2-amine [Compound 67] | 2.2 | 6 | – | 291
5 | Cn1cc(Nc2ncc(Cl)c(N3C[C@H]4CN(C(=O)[C@@H]5CC5(F)F)C[C@H]4C3)n2)cn1 [Compound 27, ((3aR,6aS)-5-(5-chloro-2-((1-methyl-1H-pyrazol-4-yl)amino)pyrimidin-4-yl)hexahydropyrrolo[3,4-c]pyrrol-2(1H)-yl)((S)-2,2-difluorocyclopropyl)methanone] | 15 | 16 | 847 | –

Further molecules by falling IC50 [1], results first:

Row | IC50 [1] [nM] | IC50 [2] [nM] | IC50 ([3]; Homo sapiens) [nM] | IC50 [3] [nM] | Molecule
6 | 14 | 16 | 2870 | – | Cc1noc(CN2C[C@@]3(C)CN(c4nc(Nc5cnn(C)c5)ncc4Cl)C[C@@]3(C)C2)n1 [Compound 82, 5-chloro-4-((3aR,6aS)-3a,6a-dimethyl-5-((3-methyl-1,2,4-oxadiazol-5-yl)methyl)hexahydropyrrolo[3,4-c]pyrrol-2(1H)-yl)-N-(1-methyl-1H-pyrazol-4-yl)pyrimidin-2-amine]
7 | 13 | 7.4 | 4550 | – | Cc1nnc(N2C[C@@]3(C)CN(c4nc(Nc5cnn(C)c5)ncc4Cl)C[C@@]3(C)C2)o1 [Compound 83, 5-chloro-4-((3aR,6aS)-3a,6a-dimethyl-5-(5-methyl-1,3,4-oxadiazol-2-yl)hexahydropyrrolo[3,4-c]pyrrol-2(1H)-yl)-N-(1-methyl-1H-pyrazol-4-yl)pyrimidin-2-amine]
8 | 6.2 | 2.9 | 215 | – | C[C@@]12CN(C(=O)C3CC3)C[C@]1(C)CN(c1nc(Nc3cnn(CC#N)c3)ncc1Cl)C2 [Compound 33, 2-(4-((5-chloro-4-((3aR,6aS)-5-(cyclopropanecarbonyl)-3a,6a-dimethylhexahydropyrrolo[3,4-c]pyrrol-2(1H)-yl)pyrimidin-2-yl)arnino)-1H-pyrazol-1-yl)acetonitrile]
9 | 5 | 2.2 | 763 | – | Cn1cc(Nc2ncc(Cl)c(N3C[C@H]4CN(C(=O)CC#N)C[C@]4(C)C3)n2)cn1 (racemic) [Compound 100, trans-3-(5-(5-chloro-2((1-methyl-1H-pyrazol-4-yl)amino)pyrimidin-4-yl)-3a-methylhexahydropyrrolo[3,4-c]pyrrol-2(1H)-yl)-3-oxopropanenitrile]
10 | 1.2 | 0.4 | 422 | – | Cn1cc(Nc2ncc(Cl)c(N3C[C@]4(C)CN(CC(F)(F)F)C[C@]4(C)C3)n2)cn1 [Compound 40, 5-chloro-4-((3aR,6aS)-3a,6a-dimethyl-5-(2,2,2-trifluoroethyl)hexahydropyrrolo[3,4-c]pyrrol-2(1H)-yl)-N-(1-methyl-1H-pyrazol-4-yl)pyrimidin-2-amine]
11 | 0.4 | 0.2 | 2210 | – | C[C@@]12CN(C(=O)CC#N)C[C@]1(C)CN(c1nc(Nc3cn[nH]c3)ncc1Cl)C2 [Compound 28, 3-((3aR,6aS)-5-(2-((1H-pyrazol-4-yl)amino)-5-chloropyrimidin-4-yl)-3a,6a-dimethylhexahydropyrrolo[3,4-c]pyrrol-2(1H)-yl)-3-oxopropanenitrile]
